Drawing on patent US20220306695A1, “COMPSTATIN ANALOGUES AND THEIR MEDICAL USES” (priority 2019, published 2022), this text covers IC50 for 13 compounds.

The structures appear in SMILES notation. Starred links: 1 amine or outer side, 2 acyl side, 3 side chain; linkers in the order of their positions; H or OH if unused. Positions of bridges follow the written chain, without caps; N, C: chain ends. Non-standard residues stand in square brackets, D forms with d. Residues, ends and D or L forms follow the SMILES beside them. Groups on a side chain read outwards from the residue. *: point of attachment. Trp(1-Me) = Cn1cc(C[C@H](N)C(=O)O)c2ccccc21; C18 diacid = O=C(O)CCCCCCCCCCCCCCCCC(=O)*; C16 diacid = O=C(O)CCCCCCCCCCCCCCC(=O)*; γGlu = O=C(O)[C@H](CCC(=O)[*:2])N[*:1]; AEEA = NCCOCCOCC(=O)O; Aoc = NCCCCCCCC(=O)O; Sar = CNCC(=O)O

The test system of one assay is classical complement pathway. Nature of the assay: In vitro haemolysis assay (inhibition of classical complement pathway). It is filed as cell-based, human. Conditions: Table 3; human serum, sensitized sheep red blood cells; read-out: IC50[nM], in vitro analysis of inhibition of hemolysis. The protocol:
Method The in vitro effect of test compounds was assessed by measuring their inhibitory effect of the classical complement pathway in a haemolysis assay. Briefly, test compounds and reference compounds were dissolved in DMSO and diluted in Tris/Casein Assay Buffer (10 mM Tris, 145 mM NaCl, 0.5 mM MgCl2, 0.15 mM CaCl2, and 0.1% W/V Casein, adjusted to pH 7.4) as 9-point serial dilutions in a 96 well plate. Sensitized sheep red blood cells (RBC) coated with rabbit anti-sheep erythrocyte antiserum (Complement Technology, Inc., TX, USA) were washed in Tris/Casein Assay Buffer. 50 μL from each well of diluted compound was added to a 96-well plate containing 50 μL diluted human serum (Complement Technology, Inc., TX, USA) and incubated for 15 minutes at room temperature. The serum dilution factor was optimized for every serum batch to obtain 70-90% of maximal haemolysis using the protocol. Then 50 μL sensitized sheep red blood cells were added to all wells ([…] per well). After 30 minutes of incubation at 37° C. with gentle agitation, the reaction was stopped by addition of 50 μL Tris STOP Buffer per well (10 mM EDTA, 10 mM Tris, 145 mM NaCl adjusted to pH 7.4). The RBCs were then removed by centrifugation and the resulting supernatant measured for hemolysis by absorbance at 405 nm. The response was normalized relative to a positive and negative control (vehicle) to calculate the IC50 from the concentration response curve using the 4-parameter logistic (4PL) nonlinear model for curve fitting.
For `CC[C@H](C)[C@@H]1NC(=O)[C@@H](NC(=O)[C@@H](NC(=O)[C@H](CCC(=O)O)NC(=O)CNC(=O)[C@H](CCC(=O)O)NC(C)=O)[C@@H](C)CC)CSSC[C@@H](C(=O)N[C@@H](CCC(=O)O)C(=O)NCC(=O)N[C@@H](CCC(=O)O)C(N)=O)NC(=O)[C@H](CCCNC(=N)N)NC(=O)[C@H](Cc2c[nH]cn2)NC(=O)[C@H](CCC(=O)O)NC(=O)CNC(=O)[C@H](Cc2c[nH]c3ccccc23)NC(=O)[C@H](CC(=O)O)NC(=O)[C@H](CCC(N)=O)NC(=O)[C@H](Cc2c[nH]c3ccccc23)NC1=O` [Compound 35] (Ac-EGEICIWQDWGEHRCEGE-NH2; disulfide 5-15), the IC50 was less than 500 nM. Same read-out and setting: under `CC[C@H](C)[C@@H]1NC(=O)[C@@H](NC(=O)[C@H](Cc2ccc(O)cc2)NC(=O)[C@H](CCC(=O)O)NC(=O)[C@H](CO)NC(C)=O)CSSC[C@@H](C(=O)N(C)CC(=O)N[C@@H](CCC(=O)O)C(=O)NCC(=O)N[C@@H](CCC(=O)O)C(=O)NCCOCCOCC(=O)NCCOCCOCC(=O)N[C@@H](CCCCNC(=O)CC[C@H](NC(=O)CNC(=O)CC[C@H](NC(=O)CCCCCCCCCCCCCCCCC(=O)O)C(=O)O)C(=O)O)C(N)=O)NC(=O)[C@H](CCCNC(=N)N)NC(=O)[C@H](Cc2c[nH]cn2)NC(=O)[C@H](CCC(=O)O)NC(=O)CNC(=O)[C@H](Cc2c[nH]c3ccccc23)NC(=O)[C@H](CC(=O)O)NC(=O)[C@H](CCC(N)=O)NC(=O)[C@H](Cc2cn(C)c3ccccc23)NC1=O` [Compound 117] (Ac-SEYCI[Trp(1-Me)]QDWGEHRC[Sar]EGE[AEEA][AEEA]K([γGlu-Gly-γGlu-C18 diacid])-NH2; disulfide 4-14) stands less than 250 nM; under `CC[C@H](C)[C@@H]1NC(=O)[C@@H](NC(=O)CN(C)C(C)=O)CSSC[C@@H](C(=O)N[C@H](C(N)=O)[C@@H](C)O)NC(=O)[C@H](CCCNC(=N)N)NC(=O)[C@H](Cc2c[nH]cn2)NC(=O)[C@H](CCC(=O)O)NC(=O)CNC(=O)[C@H](Cc2c[nH]c3ccccc23)NC(=O)[C@H](CC(=O)O)NC(=O)[C@H](CCC(N)=O)NC(=O)[C@H](Cc2c[nH]c3ccccc23)NC1=O` [Compound 11] (Ac-[Sar]CIWQDWGEHRCT-NH2; disulfide 2-12), less than 100 nM; under `CC[C@H](C)[C@@H]1NC(=O)[C@@H](NC(=O)[C@H](Cc2ccc(O)cc2)NC(=O)[C@H](C)NC(=O)[C@H](CO)NC(=O)CNC(=O)[C@H](CCC(=O)O)NC(C)=O)CSSC[C@@H](C(=O)N[C@H](C(=O)N[C@@H](CCC(=O)O)C(N)=O)[C@@H](C)O)NC(=O)[C@H](CCCNC(=N)N)NC(=O)[C@H](Cc2c[nH]cn2)NC(=O)[C@H](CCC(=O)O)NC(=O)CNC(=O)[C@H](Cc2c[nH]c3ccccc23)NC(=O)[C@H](CC(=O)O)NC(=O)[C@H](CCC(N)=O)NC(=O)[C@H](Cc2cn(C)c3ccccc23)NC1=O` [Compound 59] (Ac-EGSAYCI[Trp(1-Me)]QDWGEHRCTE-NH2; disulfide 6-16), less than 100 nM. Turning to `CC[C@H](C)[C@@H]1NC(=O)[C@@H](NC(=O)[C@H](Cc2ccccc2)NC(C)=O)CSSC[C@@H](C(=O)N[C@H](C(=O)NCC(=O)N[C@@H](C)C(=O)N[C@@H](CCC(=O)O)C(N)=O)[C@@H](C)O)NC(=O)[C@H](CCCNC(=N)N)NC(=O)[C@H](Cc2c[nH]cn2)NC(=O)[C@H](CCC(=O)O)NC(=O)CNC(=O)[C@H](Cc2c[nH]c3ccccc23)NC(=O)[C@H](CC(=O)O)NC(=O)[C@H](CCC(N)=O)NC(=O)[C@H](Cc2c[nH]c3ccccc23)NC1=O` [Compound 43] (Ac-FCIWQDWGEHRCTGAE-NH2; disulfide 2-12), the IC50 was less than 100 nM. Regarding `CC[C@H](C)[C@@H]1NC(=O)[C@@H](NC(=O)[C@H](Cc2ccccc2)NC(=O)[C@H](CCC(=O)O)NC(=O)[C@H](CO)NC(C)=O)CSSC[C@@H](C(=O)N[C@H](C(=O)N[C@@H](CCC(=O)O)C(=O)NCC(=O)N[C@@H](CCC(=O)O)C(=O)NCCCCCCCC(=O)N[C@@H](CCCCNC(=O)CC[C@H](NC(=O)CNC(=O)CC[C@H](NC(=O)CCCCCCCCCCCCCCCCC(=O)O)C(=O)O)C(=O)O)C(N)=O)[C@@H](C)O)NC(=O)[C@H](CCCNC(=N)N)NC(=O)[C@H](Cc2c[nH]cn2)NC(=O)[C@H](CCC(=O)O)NC(=O)CNC(=O)[C@H](Cc2c[nH]c3ccccc23)NC(=O)[C@H](CC(=O)O)NC(=O)[C@H](CCC(N)=O)NC(=O)[C@H](Cc2cn(C)c3ccccc23)NC1=O` [Compound 136] (Ac-SEFCI[Trp(1-Me)]QDWGEHRCTEGE[Aoc]K([γGlu-Gly-γGlu-C18 diacid])-NH2; disulfide 4-14), the IC50 was less than 100 nM. In the case of `CC[C@H](C)[C@@H]1NC(=O)[C@@H](NC(=O)[C@H](Cc2ccccc2)NC(=O)[C@H](CCC(=O)O)NC(C)=O)CSSC[C@@H](C(=O)N(C)CC(=O)N[C@@H](CCC(=O)O)C(=O)N[C@@H](C)C(=O)NCCOCCOCC(=O)NCCOCCOCC(=O)N[C@@H](CCCCNC(=O)CC[C@H](NC(=O)CNC(=O)CC[C@H](NC(=O)CCCCCCCCCCCCCCCCC(=O)O)C(=O)O)C(=O)O)C(N)=O)NC(=O)[C@H](CCCNC(=N)N)NC(=O)[C@H](Cc2c[nH]cn2)NC(=O)[C@H](CCC(=O)O)NC(=O)CNC(=O)[C@H](Cc2c[nH]c3ccccc23)NC(=O)[C@H](CC(=O)O)NC(=O)[C@H](CCC(N)=O)NC(=O)[C@H](Cc2cn(C)c3ccccc23)NC1=O` [Compound 145] (Ac-EFCI[Trp(1-Me)]QDWGEHRC[Sar]EA[AEEA][AEEA]K([γGlu-Gly-γGlu-C18 diacid])-NH2; disulfide 3-13), the IC50 was less than 100 nM.

Regarding `CC[C@H](C)[C@H](NC(=O)[C@H](C)NC(=O)[C@H](CO)NC(C)=O)C(=O)N[C@H]1CSSC[C@@H](C(=O)N[C@H](C(=O)N[C@@H](CCC(=O)O)C(=O)NCC(N)=O)[C@@H](C)O)NC(=O)[C@H](CCCNC(=N)N)NC(=O)[C@H](Cc2c[nH]cn2)NC(=O)[C@H](CCC(=O)O)NC(=O)CNC(=O)[C@H](Cc2c[nH]c3ccccc23)NC(=O)[C@H](CC(=O)O)NC(=O)[C@H](CCC(N)=O)NC(=O)[C@H](Cc2c[nH]c3ccccc23)NC(=O)[C@H]([C@@H](C)CC)NC1=O` [Compound 42] (Ac-SAICIWQDWGEHRCTEG-NH2; disulfide 4-14), the 50% inhibitory concentration (IC50) was less than 250 nM. On the same count and under the same terms, then `CC[C@H](C)[C@H](NC(C)=O)C(=O)N[C@H]1CSSC[C@@H](C(=O)N[C@H](C(N)=O)[C@@H](C)O)NC(=O)[C@H](CCCNC(=N)N)NC(=O)[C@H](Cc2c[nH]cn2)NC(=O)[C@H](CCCNC(=N)N)NC(=O)CNC(=O)[C@H](Cc2c[nH]c3ccccc23)NC(=O)[C@H](CC(=O)O)NC(=O)[C@H](CCC(N)=O)NC(=O)[C@H](Cc2c[nH]c3ccccc23)NC(=O)[C@H]([C@@H](C)CC)NC1=O` [Compound 18] (Ac-ICIWQDWGRHRCT-NH2; disulfide 2-12), with less than 100 nM; and `CC[C@H](C)[C@H](NC(C)=O)C(=O)N[C@H]1CSSC[C@@H](C(=O)N[C@H](C(=O)N[C@@H](CCC(=O)O)C(=O)NCC(=O)N[C@@H](CCCCNC(=O)COCCOCCNC(=O)COCCOCCNC(=O)CC[C@H](NC(=O)CCCCCCCCCCCCCCC(=O)O)C(=O)O)C(N)=O)[C@@H](C)O)NC(=O)[C@H](CCCNC(=N)N)NC(=O)[C@H](Cc2c[nH]cn2)NC(=O)[C@H](CCC(=O)O)NC(=O)CNC(=O)[C@H](Cc2c[nH]c3ccccc23)NC(=O)[C@H](CC(=O)O)NC(=O)[C@H](CCC(N)=O)NC(=O)[C@H](Cc2c[nH]c3ccccc23)NC(=O)[C@H]([C@@H](C)CC)NC1=O` [Compound 93] (Ac-ICIWQDWGEHRCTEGK([AEEA-AEEA-γGlu-C16 diacid])-NH2; disulfide 2-12), with less than 500 nM.

For `CC[C@H](C)[C@@H]1NC(=O)[C@@H](NC(=O)[C@H](Cc2ccc(O)cc2)NC(=O)[C@H](CCC(=O)O)NC(=O)CNC(=O)[C@H](CO)NC(=O)[C@H](C)NC(C)=O)CSSC[C@@H](C(=O)N(C)CC(=O)N[C@@H](CCC(=O)O)C(=O)NCC(=O)N[C@@H](CCC(=O)O)C(=O)N[C@@H](CCCCNC(=O)CC[C@H](NC(=O)CNC(=O)CC[C@H](NC(=O)CCCCCCCCCCCCCCCCC(=O)O)C(=O)O)C(=O)O)C(N)=O)NC(=O)[C@H](CCCNC(=N)N)NC(=O)[C@H](Cc2c[nH]cn2)NC(=O)[C@H](CCC(=O)O)NC(=O)CNC(=O)[C@H](Cc2c[nH]c3ccccc23)NC(=O)[C@H](CC(=O)O)NC(=O)[C@H](CCC(N)=O)NC(=O)[C@H](Cc2cn(C)c3ccccc23)NC1=O` [Compound 113] (Ac-ASGEYCI[Trp(1-Me)]QDWGEHRC[Sar]EGEK([γGlu-Gly-γGlu-C18 diacid])-NH2; disulfide 6-16), the IC50 was less than 500 nM.

The assay is the same for the next values; noted with them: Table 4; valine 3 versus isoleucine 3 pairs; read-out: CP hemolysis IC50.
Consider `CC[C@H](C)[C@H](NC(C)=O)C(=O)N[C@H]1CSSC[C@@H](C(=O)N[C@H](C(N)=O)[C@@H](C)O)NC(=O)[C@H](CCCNC(=N)N)NC(=O)[C@H](Cc2c[nH]cn2)NC(=O)[C@H](CO)NC(=O)CNC(=O)[C@H](Cc2c[nH]c3ccccc23)NC(=O)[C@H](CC(=O)O)NC(=O)[C@H](CCC(N)=O)NC(=O)[C@H](Cc2c[nH]c3ccccc23)NC(=O)[C@H](C(C)C)NC1=O` [B, reference compound] (Ac-ICVWQDWGSHRCT-NH2; disulfide 2-12), for which the IC50 is 360 nM.

Staying with this assay, now noted: Table 5; different residues at position 3 of Ac-IC(1)XWQDWGEHRC(1)T-NH2; read-out: IC50, CP hemolysis.
As to `N[C@@H](Cc1ccccc1)C(=O)O` [Phenylalanine, reference compound], the IC50 is greater than 10000 nM.

As a reminder, the IC50 is the point on the concentration scale where inhibition reaches its midpoint.
